The source of these data is article PMC8329300, “X-ray crystallography reveals molecular recognition mechanism for sugar binding in a melibiose transporter MelB” (Communications Biology, 2021).

What is called IC50 is the midpoint of a concentration-inhibition curve. By Kd is commonly meant the concentration at which binding is half-saturated. A high value points to a looser complex.

Assay [1] concerns the target T1, D59C MelBSt (Salmonella typhimurium, UniProt P30878, D59C).
T1 construct: Cys scanning mutagenesis for the full-length MelBSt; His10 (C); made in house; host or cells: E. coli DW2
As to the kind of experiment: Trp→dansyl galactoside (D2G) FRET time trace and IC50 of D2G displacement (D59C). The assay is classed as binding. The settings on record: IC50 of galactoside displacement on bound D2G, α-NPG, 10 μM D2G. As to the method: Fig. 1 Functional characterizations. a [^3H] Melibiose transport time course with intact cells. […] Inset, melibiose fermentation assay. Transformants with DW2 strain were plated on MacConkey agar plates containing 30 mM melibiose as the sole carbohydrate source and pH sensor neutral red, and incubated at 37 °C for 16–18 h before imaging. Number of tests = 3, from different batch of cells or duplicate measurements from same batch of sample. b Ligand binding by Trp→dansyl galactoside (D^2G) FRET assay. Purified proteins at 1 μM concentration in 20 mM Tris-HCl, pH 7.5, 100 mM CholCl, 10% glycerol, and 0.03% UDM were subjected to steady-state fluorescence measurements as described in Methods. On the time-trace, 1.8 μL of 1 mM D^2G at 10 μM was added into 180 μL of protein solutions at 1-min point, followed by supplying 10 μL of 5 mM DDMB or 5 mM α-NPG to displace the bound D^2G. For testing Na^+ or Li^+ binding, they are added into the solution before displacement with the second sugar. The structure of DDMB or α-NPG is shown in a chair form, and the carbon positions are labeled. Glycosidic bonds are indicated by arrows. Both are α-galactosides containing a substituent at the anomeric carbon-1. The data were from duplicate measurements.
Steady-state fluorescence measurements were performed with an AMINCO-Bowman series 2 spectrometer with purified MelBSt at 1 μM in 20 mM Tris-HCl, pH 7.5, 100 mM CholCl, 10% glycerol, 0.03% UDM. Using an excitation wavelength at 290 nm, the emission intensity was recorded at 490 nm. On a time-trace, D^2G, NaCl or LiCl, then DDMB or α-NPG, were sequentially added into the protein solutions at a 1 min-interval. […] An identical volume of water was used for the control. The decrease in intensity after each addition of DDMB or α-NPG was corrected by the dilution effect and plotted as a function of the accumulated α-NPG concentrations or estimated DDMB concentrations. The 50% inhibitory concentration (IC50) was determined by fitting a hyperbolic function to the data (OriginPro 2020b). The final concentration of each detergent is estimated to be 234 μM, which is less than their CMC value for (DDMB, 295 μM).
Supplementary Figure 2. Determination of DDMB binding affinity to MelBSt. (a) Titration with DDMB or a-NPG. MelBSt in 20 mM Tris-HCl, pH 7.5, 100 mM CholCl, 10% glycerol, 0.03% UDM without (1) or with 100 mM NaCl (2) were added with D2G at 10 μM at 1-min time point as indicated by triangle symbols on the Trp®dansyl FRET time trace. Starting at the 2-min of time point, DDMB or a-NPG solution was supplemented consecutively at a 1-min interval into MelBSt solution till no change in fluorescence intensity reached as indicated in star symbols. DDM and UDM were used as negative controls. 1% DDM or UDM was titrated into the mixture, The […]
At 2-min time point, additions of galactosides were colored in pink, a-NPG in yellow, UDM in blue, DDM in light blue, water in gray traces, respectively. (b) IC50 determination. The intensity decrease at each titration were corrected by the dilution effect, and plotted as a function of the accumulated DDMB or α-NPG concentration. The 50% inhibitory concentration (IC50) was determined by fitting the data to a hyperbolic function (OriginPro 2020b). Results are presented in […]
(1 picture or pasted object on this page, not shown here)

Assay [2] deals with T2, WT MelBSt (Salmonella typhimurium, UniProt P30878).
T2 construct: Cys scanning mutagenesis for the full-length MelBSt; His10 (C); made in house; host or cells: E. coli DW2
Put plainly: biochemical. The assay is classed as binding. The note with it: for Kd: Kd of substrate binding, α-NPG, ITC 25 °C. As to the method: All ITC ligand-binding assays were performed with the TA Instruments (Nano-ITC device) at 25 °C. In a typical experiment, the titrand (MelBSt) in the ITC sample cell was titrated with the specified titrant (placed in the Syringe) by an incremental injection of 2-µL aliquots at an interval of 300 s at a constant stirring rate of 250 r.p.m. All samples were degassed using a TA Instruments Degassing Station (model 6326) for 15 min prior to the titration. Data processing was performed with the NanoAnalyze (version 3.6.0 software) provided with the ITC equipment. The normalized heat changes were subtracted from the heat of dilution elicited by last few injections, where no further binding occurred; the corrected heat changes were plotted against the molar ratio of titrant versus titrand. The values for association constant (Ka) value were determined by fitting the data with a one-site independent-binding model. At most cases, the binding stoichiometry (N) number was fixed to 1 since it is a known parameter, which can restrain the data fitting and achieve more accurate results. The dissociation constant Kd = 1/Ka.
Supplementary Figure 1. ITC measurements. ITC measurements were performed at 25 °C as described in Methods. (a) Binding thermography. For all tests, ligands and proteins are buffer- […]
(1 picture or pasted object on this page, not shown here) […]
matched. For melibiose binding measurements, a solution of 80 mM or 10 mM in the absence or presence of NaCl at 100 mM, was injected into the ITC sample cell containing the WT MelBSt at 80 μM without or with 100 mM NaCl, respectively. With the D59C mutant, […] was used. For α-NPG binding measurements, 0.5 mM or 0.4 mM solution was used to titrate the WT or D59C mutant at 50 μM in the absence or presence or 100 mM NaCl, respectively. For the Na+ or Li+ binding measurements, 5 mM or 2 mM solution was used to titrate WT MelBSt at 80 μM without or with 50 mM melibiose, respectively; 40 mM solutions was used to titrate the D59C mutant. (b) binding isotherm. Curve fit was carried out with a one-site independent-binding model included in the NanoAnalyze software (version 3.6.0).

T2 sequence (P30878 whole entry): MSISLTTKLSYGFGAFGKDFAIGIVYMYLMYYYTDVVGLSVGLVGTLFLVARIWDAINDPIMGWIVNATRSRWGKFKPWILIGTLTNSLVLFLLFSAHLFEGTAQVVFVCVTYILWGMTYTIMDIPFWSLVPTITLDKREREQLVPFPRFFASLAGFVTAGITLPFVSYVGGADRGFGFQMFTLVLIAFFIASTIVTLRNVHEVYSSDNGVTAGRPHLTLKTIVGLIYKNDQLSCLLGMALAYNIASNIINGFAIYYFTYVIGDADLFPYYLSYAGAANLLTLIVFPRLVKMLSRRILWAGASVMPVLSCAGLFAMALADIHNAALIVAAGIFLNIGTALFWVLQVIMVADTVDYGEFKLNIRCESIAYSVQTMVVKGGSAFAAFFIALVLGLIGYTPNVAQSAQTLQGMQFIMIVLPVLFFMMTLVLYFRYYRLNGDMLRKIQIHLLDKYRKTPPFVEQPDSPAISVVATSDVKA
T1 sequence (P30878 whole entry D59C): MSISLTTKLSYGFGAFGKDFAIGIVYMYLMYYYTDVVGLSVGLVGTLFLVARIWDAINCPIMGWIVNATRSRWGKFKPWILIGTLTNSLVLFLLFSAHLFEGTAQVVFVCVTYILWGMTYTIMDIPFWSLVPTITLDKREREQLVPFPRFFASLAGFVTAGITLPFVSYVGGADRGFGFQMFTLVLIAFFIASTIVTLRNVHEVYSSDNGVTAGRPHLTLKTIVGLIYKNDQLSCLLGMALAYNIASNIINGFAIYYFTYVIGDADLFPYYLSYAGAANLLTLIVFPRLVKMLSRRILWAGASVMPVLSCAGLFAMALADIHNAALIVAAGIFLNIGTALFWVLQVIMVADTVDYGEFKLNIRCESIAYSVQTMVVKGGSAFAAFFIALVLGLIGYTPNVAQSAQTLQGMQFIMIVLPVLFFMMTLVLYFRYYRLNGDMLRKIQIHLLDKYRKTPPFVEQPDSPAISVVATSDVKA

For the molecule `O=[N+]([O-])c1ccc(OC2OC(CO)C(O)C(O)C2O)cc1` [α-NPG, 4-nitrophenyl-α-D-galactopyranoside], the IC50 is 22.1 ± 5.75 µM in assay [1] (Apo) and 21.3 ± 1.67 µM in assay [1] (Na+ (100 mM)). The Kd in assay [2] (Apo) came out at 43.2 ± 0.62 µM; in assay [2] (Na+ (100 mM)), 25.7 ± 4.42 µM. In addition, in assay [2] (from Table 1), the “greater affinity compared to the native substrate melibiose” value is given as 100 fold.
